Measured values from patent publication US5861405A, “S-substituted 1,3,7-trialkyl-xanthine derivatives” (priority 1994, dated 1999).
≈ marks a conversion by molar mass, not a printed value. Where “and” joins values, the source holds several entries; their conditions need not be identical. Equal entries are not always repeated. Where two headings read alike, the source gives them in different places.

Experiments:
locomotor activity = settings: cited from earlier work
[1] = system: locomotor activity in mice; assay: Locomotor activity in mice, open field (Digiscan activity monitor); format: in vivo, mouse; settings: for locomotor stimulation, in words: mice
Method: Adult male mice of the NIH (Swiss) strain weighing 25-30 g were housed in groups of 10 animals per cage with a light-dark cycle of 12:12 h. The animals were given free access to standard pellet food and water and were acclimatized to laboratory conditions for 24 h prior to testing. Each animal was used only once in the activity monitor.
Locomotor activity of individual animals was studied in an open field using a Digiscan activity monitor (Omnitech Electronics Inc., Columbus, Ohio) equipped with an IBM-compatible computer. The computer-tabulated measurements represent multivariate locomotor analysis with specific measures, such as simultaneous measurements of ambulatory, rearing, stereotypical, and rotational behaviors. Data were collected in the morning, for three consecutive intervals of 10 minutes each, and analyzed separately and as a group. Statistical analysis was performed using the Student t test. […] Drugs were administered i.p. in a volume corresponding to 5 ml/kg body weight. Where applicable, the antagonist was injected 10 minutes before the agonist. ED50 values were determined using regression analysis on the InPlot software (GraphPAD, San Diego, Calif.).

[2] = system: rat brain A2a- vs. A1-receptors; settings: cited from earlier work
[3] = system: locomotor activity in mice; settings: postinjection (Baumgold et al.); cited from earlier work
[4] = molecular target: T1, rat A1 cortical receptors (Rattus norvegicus, UniProt P25099); assay: Radioligand binding, [3H]N6-phenylisopropyladenosine ([3H]PIA), rat cortical A1 receptors
T1 construct: Rat cerebral cortical membranes and striatal membranes were prepared; from tissue; host or cells: rat cerebral cortex membranes
T1 sequence (P25099 1-326): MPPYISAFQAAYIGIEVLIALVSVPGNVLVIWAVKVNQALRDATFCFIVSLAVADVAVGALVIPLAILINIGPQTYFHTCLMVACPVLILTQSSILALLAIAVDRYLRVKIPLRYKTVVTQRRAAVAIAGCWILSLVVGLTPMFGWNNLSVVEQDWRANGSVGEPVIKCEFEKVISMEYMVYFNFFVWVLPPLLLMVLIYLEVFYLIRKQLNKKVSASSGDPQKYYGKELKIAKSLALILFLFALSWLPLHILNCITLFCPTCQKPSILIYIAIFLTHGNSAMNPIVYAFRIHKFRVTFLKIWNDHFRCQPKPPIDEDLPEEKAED
Method: (§1) The 1,3,7-trialkyl-8-substituted xanthine compounds of the present invention were tested in a radioligand binding assay for affinity at adenosine receptors in rat brain membranes.
The final concentration of DMSO in the assay medium was generally 2%.
Membranes (~100 μg protein per tube) were incubated for 1.5 h at 37° C. in a total volume of 0.5 ml of 50 mM Tris hydrochloride, at pH 7.4. Test drugs were dissolved in DMSO and added in 10 μl aliquots, resulting in a final DMSO concentration of 2%. Bound and free radioligand were separated by addition of 3 ml of a buffer containing 50 mM Tris hydrochloride, pH 7.4, at 5° C., followed by vacuum filtration using a Brandel Cell Harvester (Brandel, Gaithersburg, Md.) and a Whatman GF/B glass fiber filter with additional washes totaling 9 ml of buffer. Non-specific binding was determined with 10 μM 2-chloroadenosine.
(§2) At least six different concentrations spanning three orders of magnitude, adjusted appropriately for the IC50 of each compound, were used.

Aqueous solubility = settings: for solubility kinetic: water, 0.5% dmso, organic solvent or mixture
Method: To avoid precipitation associated with serial aqueous dilutions, the only point at which DMSO was added to aqueous medium was immediately prior to the incubation.

[5] = molecular target: T2, rat striatal A2a receptors (Rattus norvegicus, UniProt P30543); assay: Radioligand binding, [3H]CGS 21680, rat striatal A2a receptors; design: Rat cerebral cortical membranes and striatal membranes were prepared; from tissue; host or cells: rat striatal membranes; settings: for A1/A2a ratio: ratio of Ki values
T2 sequence (P30543 whole entry): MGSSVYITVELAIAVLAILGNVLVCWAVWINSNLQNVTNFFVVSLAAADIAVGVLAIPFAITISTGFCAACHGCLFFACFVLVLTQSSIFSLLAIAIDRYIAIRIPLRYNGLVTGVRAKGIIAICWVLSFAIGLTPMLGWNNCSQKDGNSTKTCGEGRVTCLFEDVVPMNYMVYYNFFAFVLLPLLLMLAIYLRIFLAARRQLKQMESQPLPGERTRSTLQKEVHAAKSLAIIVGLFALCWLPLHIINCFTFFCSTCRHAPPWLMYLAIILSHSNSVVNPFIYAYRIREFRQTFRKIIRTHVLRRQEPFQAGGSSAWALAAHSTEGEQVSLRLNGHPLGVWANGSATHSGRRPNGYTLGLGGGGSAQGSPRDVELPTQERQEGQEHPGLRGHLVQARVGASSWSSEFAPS
Method: as §1
The stock solutions were diluted with DMSO to a concentration of ≥0.1 mM prior to adding to the aqueous medium. The final concentration of DMSO in the assay medium was generally 2%.
Test drugs were dissolved in DMSO and added in 10 μl aliquots, resulting in a final DMSO concentration of 2%. Non-specific binding was defined using 20 μM 2-chloroadenosine. Filtration was carried out using a Brandel Cell Harvester, as above, using Tris HCl/MgCl2 as the washing buffer.
as §2

[6] = molecular target: T3, A1 receptors, bovine striatum (Bos taurus, UniProt P28190); assay: Competition binding vs [3H]PIA, bovine striatal membranes
T3 construct: Striatal tissue was isolated by dissection of rabbit, bovine, and rat brain; tissue Pel-Freeze Biologicals Co; host or cells: bovine striatal membranes (frozen brain)
T3 sequence (P28190 whole entry): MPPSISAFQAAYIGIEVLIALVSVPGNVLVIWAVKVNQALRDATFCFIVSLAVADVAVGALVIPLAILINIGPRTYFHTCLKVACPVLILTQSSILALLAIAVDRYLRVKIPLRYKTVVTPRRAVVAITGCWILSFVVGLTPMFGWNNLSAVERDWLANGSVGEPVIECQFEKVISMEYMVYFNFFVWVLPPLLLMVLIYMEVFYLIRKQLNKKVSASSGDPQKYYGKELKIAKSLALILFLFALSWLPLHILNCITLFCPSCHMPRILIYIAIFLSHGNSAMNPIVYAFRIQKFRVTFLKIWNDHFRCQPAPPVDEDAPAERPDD

[7] = molecular target: T4, A1 receptors, rat striatum (Rattus norvegicus, UniProt P25099); assay: Competition binding vs [3H]PIA, rat striatal membranes
T4 construct: Striatal tissue was isolated by dissection of rabbit, bovine, and rat brain; tissue Pel-Freeze Biologicals Co; host or cells: rat striatal membranes (frozen brain)
T4 sequence (P25099 1-326): T1 sequence (P25099 1-326)

[8] = molecular target: T5, A1 receptors, guinea pig striatum (Cavia porcellus, UniProt P47745); assay: Competition binding vs [3H]PIA, guinea pig striatal membranes
T5 construct: guinea pig, bovine, and rabbit striatal membranes; tissue Keystone Biologicals; host or cells: guinea pig striatal membranes (frozen brain)
T5 sequence (P47745 whole entry): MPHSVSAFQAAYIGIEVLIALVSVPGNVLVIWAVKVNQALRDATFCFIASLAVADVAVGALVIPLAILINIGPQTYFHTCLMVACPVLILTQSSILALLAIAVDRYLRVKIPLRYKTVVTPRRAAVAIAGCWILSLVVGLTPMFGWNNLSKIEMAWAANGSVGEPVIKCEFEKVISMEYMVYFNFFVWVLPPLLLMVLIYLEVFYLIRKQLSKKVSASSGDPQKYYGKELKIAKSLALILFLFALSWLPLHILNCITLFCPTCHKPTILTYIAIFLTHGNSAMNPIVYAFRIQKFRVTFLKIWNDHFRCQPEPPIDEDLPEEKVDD

bovine A2a receptors = bovine A2a receptors (Bos taurus, UniProt E1BKU0); assay: biochemical
Sequence of bovine A2a receptors (E1BKU0 1-401): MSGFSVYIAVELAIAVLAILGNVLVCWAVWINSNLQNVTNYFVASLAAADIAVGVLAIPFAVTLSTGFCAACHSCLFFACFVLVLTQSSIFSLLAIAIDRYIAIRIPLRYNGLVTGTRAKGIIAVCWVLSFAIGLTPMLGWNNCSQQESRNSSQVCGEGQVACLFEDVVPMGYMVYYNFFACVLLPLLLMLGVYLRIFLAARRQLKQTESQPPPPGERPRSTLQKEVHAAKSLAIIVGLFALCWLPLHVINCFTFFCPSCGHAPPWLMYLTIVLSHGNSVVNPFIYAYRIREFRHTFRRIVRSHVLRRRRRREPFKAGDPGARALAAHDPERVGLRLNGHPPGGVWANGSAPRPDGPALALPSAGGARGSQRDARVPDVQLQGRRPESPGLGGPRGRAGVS

[9] = molecular target: A2a receptors, bovine striatum (Bos taurus, UniProt E1BKU0); assay: biochemical
Sequence of A2a receptors, bovine striatum (E1BKU0 1-401): as above

rabbit A2a receptors = rabbit A2a receptors (Oryctolagus cuniculus, UniProt G1SVQ2); assay: biochemical
Sequence of rabbit A2a receptors (G1SVQ2 1-409): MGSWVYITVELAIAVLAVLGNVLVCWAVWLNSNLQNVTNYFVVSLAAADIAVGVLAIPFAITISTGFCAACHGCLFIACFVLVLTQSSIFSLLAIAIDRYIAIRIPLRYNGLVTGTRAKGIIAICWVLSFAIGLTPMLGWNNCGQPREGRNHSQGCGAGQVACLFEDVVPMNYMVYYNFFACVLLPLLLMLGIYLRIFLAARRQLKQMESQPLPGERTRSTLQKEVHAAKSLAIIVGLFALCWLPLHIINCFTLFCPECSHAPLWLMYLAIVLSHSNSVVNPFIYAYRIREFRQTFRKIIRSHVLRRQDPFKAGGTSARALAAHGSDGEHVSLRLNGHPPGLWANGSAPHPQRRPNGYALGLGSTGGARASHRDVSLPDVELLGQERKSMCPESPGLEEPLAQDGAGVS

[10] = molecular target: T6, A2a receptors, rat striatum (Rattus norvegicus, UniProt P30543); settings: four species (rat, guinea pig, bovine, rabbit)
T6 sequence (P30543 whole entry): as the sequence (P30543 whole entry) above

[11] = molecular target: T2, rat striatal A2a receptors
[12] = molecular target: T6, A2a receptors, rat striatum; assay: biochemical
[13] = molecular target: T7, A1 receptors, rabbit striatum (Oryctolagus cuniculus, UniProt P34970); assay: Competition binding vs [3H]PIA, rabbit striatal membranes
T7 construct: Striatal tissue was isolated by dissection of rabbit, bovine, and rat brain; tissue Pel-Freeze Biologicals Co; host or cells: rabbit striatal membranes (frozen brain)
T7 sequence (P34970 whole entry): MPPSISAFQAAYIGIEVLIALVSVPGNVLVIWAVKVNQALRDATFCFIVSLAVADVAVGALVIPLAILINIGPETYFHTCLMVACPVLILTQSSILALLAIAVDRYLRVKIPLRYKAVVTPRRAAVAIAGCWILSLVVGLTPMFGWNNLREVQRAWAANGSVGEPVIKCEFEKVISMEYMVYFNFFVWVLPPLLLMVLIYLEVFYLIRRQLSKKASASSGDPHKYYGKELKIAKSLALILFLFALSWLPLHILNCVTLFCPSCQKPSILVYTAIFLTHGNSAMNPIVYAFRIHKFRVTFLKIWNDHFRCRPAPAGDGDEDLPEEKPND

[14] = molecular target: T2, rat striatal A2a receptors; assay: biochemical
[15] = system: A1 receptors, rat striatal membranes; assay: Irreversible inhibition after preincubation and washing, [3H]PIA, rat striatal membranes; format: binding; settings: preincubation with 20 μM ISC, 60 min
Method: Striatal membranes were treated with inhibitor as follows.

[16] = molecular target: A2a receptors, rabbit striatum (Oryctolagus cuniculus, UniProt G1SVQ2); assay: biochemical
Sequence of A2a receptors, rabbit striatum (G1SVQ2 1-409): as the sequence (G1SVQ2 1-409) above

[17] = molecular target: A1 receptors, guinea pig brain; settings: vs [3H]CHA in guinea pig brain; read-out: Ki (A1), Shimada et al.; cited from earlier work
[18] = molecular target: A2 receptors, rat striatum; settings: vs [3H]NECA in rat striatum; read-out: Ki (A2a), Shimada et al.; cited from earlier work
[19] = molecular target: T8, A2a receptor, human platelets (Homo sapiens, UniProt P29274); assay: Antagonism of NECA-elicited stimulation of adenylate cyclase, human platelets; format: biochemical
T8 construct: PC12) cell membranes or in human platelets; from tissue; host or cells: human platelets
T8 sequence (P29274 whole entry): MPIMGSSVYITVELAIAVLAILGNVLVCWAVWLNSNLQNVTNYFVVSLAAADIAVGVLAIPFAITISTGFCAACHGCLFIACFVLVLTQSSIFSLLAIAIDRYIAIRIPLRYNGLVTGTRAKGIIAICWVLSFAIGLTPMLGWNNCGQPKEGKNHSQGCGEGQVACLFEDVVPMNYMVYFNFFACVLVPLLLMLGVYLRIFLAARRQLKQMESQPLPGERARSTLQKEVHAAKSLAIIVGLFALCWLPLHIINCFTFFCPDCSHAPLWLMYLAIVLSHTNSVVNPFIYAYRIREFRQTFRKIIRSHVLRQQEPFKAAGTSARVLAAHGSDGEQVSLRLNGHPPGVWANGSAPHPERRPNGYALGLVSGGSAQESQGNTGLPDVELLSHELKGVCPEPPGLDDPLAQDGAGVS

[20] = molecular target: A1 receptor, rat adipocytes (Rattus norvegicus, UniProt P25099); assay: biochemical
Method: KB values were calculated using the Schild equation from the ratio of EC50 values for agonist in the presence and absence of antagonist.

[21] = molecular target: T6, A2a receptors, rat striatum; assay: Radioligand binding vs [3H]N-ethylcarboxamidoadenosine, rat striatum; design: Striatal tissue was isolated by dissection of rabbit, bovine, and rat brain; tissue Pel-Freeze Biologicals Co; host or cells: rat striatal membranes (frozen brain); settings: Table VI; vs [3H]NECA; read-out: Inhibition of binding (Ki), rat striatum A2a
[22] = molecular target: T9, A2a receptor, rat pheochromocytoma (PC12) cells (Rattus norvegicus, UniProt P30543); assay: biochemical; settings: Table VI; read-out: Adenylate cyclase (KB), rat PC12 cells A2a
T9 construct: via an A2a receptor in rat pheochromocytoma (PC12) cell membranes; endogenous in cells; host or cells: PC12 cells (rat pheochromocytoma)
T9 sequence (P30543 whole entry): as the sequence (P30543 whole entry) above

[23] = Table VI, vs [3H]PIA, read-out: Inhibition of binding (Ki), rat cortex A1
[24] = Ki value / affinity at A2 receptors
[25] = Table I, vs [3H]CGS21680 (5 nM), rat striatal A2 receptors, read-out: Ki (A2a)
[26] = Table I, vs [3H]PIA (1 nM), rat A1 receptors, read-out: Ki (A1)

CCNC(=O)[C@H]1O[C@@H](n2cnc3c(N)nc(NCCc4ccc(CCC(=O)NCCN)cc4)nc32)[C@H](O)[C@@H]1O [APEC, 2-[(2-aminoethylamino)-carbonylethylphenylethylamino]-5'-N-ethylcarboxamidoadenosine, reference compound]
ED50 for locomotor depression (locomotor activity; i.p., previously determined): 16 µg/kg
total distance traveled ([1]; APEC alone 16 μg/kg, n=13): 2277±229 cm/30 min
ED50 for locomotor depression elicited by APEC ([1]; following 1 mg/kg CSC): 190 µg/kg

Nc1nc2ccc(Cl)cc2n2c(-c3ccccc3)nnc12 [CP66,713]
effect on A1 depression of locomotor activity (locomotor activity; in vivo, same dose): no effect on A1 depression of locomotor activity
antagonism of A2 depression of locomotor activity (locomotor activity; in vivo): partial antagonism of A2 depression of locomotor activity
selectivity A2a vs. A1 [2]: 12 fold

Cn1c(=O)c2[nH]c(C3CCCC3)nc2n(C)c1=O [CPT, 8-cyclopentyltheophylline, reference compound]
time until stimulatory effect disappears [3]: ≤ 20 min
locomotor stimulation, in words [1]: moderate, but transient, locomotor stimulation
Behavioral stimulation ([1]; typical dose 10 (mg/kg, i.p.)): ++
Ki [4, 23]: 24 nM

Cn1c(=O)c2c(nc(/C=C/c3cccc(NC(=O)CCC(=O)O)c3)n2C)n(C)c1=O [Compound 24, 1,3,7-Trimethyl-8-(3-succinylaminostyryl)xanthine]
solubility (Aqueous solubility; 0.1 m k2hpo4): 19 mM
solubility (Aqueous solubility; 0.1 m potassium phosphate, pH 7.4): 19 mM
Ki [5, 24]: 134 nM
A1/A2a ratio ([5]; Table I): 250
Ki [5, 25]: 143 ± 45 nM
Ki [4, 26]: 35100 nM

Cn1c(=O)c2c(nc(/C=C/c3cccc(Cl)c3)n2C)n(C)c1=O [Compound 28a, 1,3,7-trimethyl-8-(3-chlorostyryl) xanthine]
solubility (Aqueous solubility; injection vehicle): < 1000 µg/mL
increase in clockwise and anti-clockwise rotations [1]: 30-60%
effect on locomotor activity of concurrent administration ([1]; APEC 16 μg/kg with CSC 5 mg/kg): no effect on the locomotor activity
reversal of APEC-elicited locomotor depression ([1]; CSC 1 mg/kg i.p., APEC 16 μg/kg): nearly completely reverse the locomotor depression
total distance traveled ([1]; CSC 1.0 mg/kg with CPX […], n=9): 4861±243 cm/30 min
stimulation of locomotor activity over CSC alone ([1]; CSC 1.0 mg/kg with CPX […], p<0.001): 37%
total distance traveled ([1]; CSC 5 mg/kg alone, n=13): 4223±496 cm/30 min
increase in locomotor activity versus APEC alone ([1]; CSC 5 mg/kg with APEC 16 μg/kg): 73%
total distance traveled ([1]; CSC 5 mg/kg with APEC 16 μg/kg, n=14): 3949±284 cm/30 min
total distance traveled ([1]; CSC 5 mg/kg with CHA, n=8): 2029±250 cm/30 min
locomotor stimulation over vehicle control ([1]; CSC 5 mg/kg, 30 min): 22%
effect on locomotor depression elicited by CHA ([1]; CSC 5 mg/kg, CHA 100 μg/kg i.p.): no effect on locomotor depression
increase in locomotor activity versus control ([1]; CSC 5 mg/kg, last 10 minutes of 30 min): 56%
total distance traveled ([1]; CSC alone 1 mg/kg i.p., n=19): 3550±230 cm/30 min
increase in average distance per move ([1]; CSC with CPX): approximately 30%
locomotor stimulation, in words [1]: no significant effect on locomotor activity
Behavioral stimulation ([1]; typical dose 5 (mg/kg, i.p.)): +

Cn1c(=O)c2c(nc(/C=C/c3cccc(N=C=S)c3)n2C)n(C)c1=O [Compound 28e, 1,3,7-trimethyl-8-(3-isothiocyanatostyryl)xanthine]
IC50 [6]: 63.4 µM
IC50 ([7]; IC50 (A1), rat, vs [3H]PIA (1 nM)): 42.6 µM
IC50 ([7]; IC50 at A1-receptors, rat striatum): 43 µM
Ki ([7]; Ki value (A1), rat striatum, Table V footnote b): 20.3 µM
Ki ([7]; Ki value at A1-receptors, rat striatum): 20 µM
IC50 [8]: 51.4 µM
EC50 (bovine A2a receptors): 8 µM
Ki ([5]; Ki (A2a)): 111 ± 1 nM
IC50 [9]: 516 ± 64 nM
EC50 (rabbit A2a receptors): 10 µM
Hill coefficients for displacement of [3H]CGS 21680 [10]: ~1
time for inhibition of 50% of final value at 2 h ([11]; 2 μM ISC, 25° C.): Approximately 3 min
regeneration of A2a-receptor binding ([11]; IBMX 100 μM overnight on ISC-treated membranes): did not regenerate any A2a -receptor binding
IC50 [12]: 146 nM
Ki [12]: 111 nM
IC50 [13]: 75.6 µM
IC50 [14]: 2700 nM
inhibition at 20 µM ([14]; 1 h, read-out: loss of specific [3H]CGS 21680 binding, preincubation with 20 μM ISC, rat): ~80%
inhibition at 2 µM ([14]; 2 h, read-out: loss of specific [3H]CGS 21680 binding at 2 h, 2 μM ISC, 25° C.): ~55%
loss of [3H]PIA binding [15]: 12±2.9%
IC50 [16]: 413 ± 135 nM
Ki [16]: 347 ± 112 nM
Ki [4]: 20300 nM

COc1cc(/C=C/c2nc3c([nH]2)c(=O)n(C)c(=O)n3C)cc(OC)c1OC [Compound 44a]
Ki [17]: > 100 µM
Ki [18]: 71 nM
Ki [4, 26]: 2280 nM

COc1cc(/C=C/c2nc3c(c(=O)n(C)c(=O)n3C)n2C)cc(OC)c1OC [Compound 44b, 1,3,7-trimethyl-8-(3,4,5-trimethoxy)-styryl-xanthine]
Ki [17]: > 100 µM
Ki [18]: 18 nM
Ki [4, 26]: 9200 nM

C=CCn1c(=O)c2c(nc(/C=C/c3cc(OC)c(OC)c(OC)c3)n2C)n(CC=C)c1=O [Compound 46]
Ki [17]: > 100 µM
Ki [18]: 15 nM
Ki [4, 26]: 1930 nM

CCCn1c(=O)c2[nH]c(/C=C/c3ccc(OC)c(OC)c3)nc2n(CCC)c1=O [Compound 52a]
Ki [17]: 1.7 µM
Ki [18]: 6700 nM
Ki [4, 26]: 71 ± 11 nM

CCCn1c(=O)c2c(nc(/C=C/c3cc(OC)cc(OC)c3)n2C)n(CCC)c1=O [Compound 53b, 1,3-Dipropyl-7-methyl-8-(3,5-dimethoxystyryl)xanthine]
solubility kinetic (Aqueous solubility; concentration above which compound did not remain dissolved): 10 µM (≈ 4.12 µg/mL)
solubility kinetic (Aqueous solubility; theoretical concentration beyond which UV absorption decreases (supersaturation)): 20 µM (≈ 8.25 µg/mL)
selectivity relative to 52b [5]: 5 fold
apparent affinity at A2 receptors versus DMSO concentration ([5]; 0.5% to 6% DMSO): constant within the range of 0.5% to 6% DMSO
Ki [5, 24]: 24 nM and ≤ 50 nM
A1/A2a ratio ([5]; Table I): 110
Ki [5, 25]: 24 ± 6 nM
A2-selectivity ([5]; rat brain binding, this study): 110 fold
apparent A1 affinity versus DMSO concentration ([4]; 0.5 and 1% DMSO): somewhat dependent on DMSO concentration
Ki [4, 26]: 2630 nM

C#CCn1c(=O)c2c(ncn2C)n(C)c1=O [DMPX, 3,7-dimethyl-1-propargylxanthine]
Kb [19]: 4 µM
Behavioral stimulation ([1]; typical dose 10 (mg/kg, i.p.)): +++
Kb [20]: 94 µM
Ki [21]: 16 µM
Kb [22]: 9.6 µM
Ki [4, 23]: 45000 nM
